Data as given in patent US20250263774A1, “DISCOVERING NEW XENOBIOTIC SUBSTRATES OF AN UDP-GLYCOSYLTRANSFERASE WITH A HIGH-THROUGHPUT METHOD” (priority 2024, published 2025).

What was measured:
[1] = system: UGT71G1; assay: LC-MS/MS analysis of substrates and glycosylated products of the UGT71G1 reaction; format: biochemical, Medicago truncatula; details: for validation as UGT71G1 substrate (glycosylated product detected): substrate 10 μM, UDP-glucose 50 μM, pH 7.4, 37° C., 2 hours 3HF, 4 hours SN-38, 24 hours BPA
Method: Liquid chromatography-coupled mass spectrometric analysis of substrates and products. The glycosylation reaction for plant UGT71G1 enzyme extracted from E. coli BL21(DE3) cells containing UGT71G1-pET28a was performed similar to the glucuronidation reaction as those published previously 17 with minor modification. Briefly, the enzyme UGT71G1 (final concentration 0.05-0.5 μg/ml) was mixed with UDP-glucose (50 μM) and substrate (final concentration 10 μM) in 50 mM potassium phosphate buffer (pH 7.4) to reach a final volume of 200 μL. This reaction mixture was incubated at 37° C. and at various time points for each substrate to obtain the highest product-to-substrate ratio: 2 hours for 3HF, 4 hours for SN-38, and 24 hours for BPA; reactions were ended with the addition of 200 μL methanol. The samples were centrifuged at 14000 rpm for 15 mins and supernatant was subjected to UPLC-MS/MS system for analysis after appropriate dilution with 50% MeOH solution.
LC-MS/MS analysis was performed with an EXIONLC™ UHPLC system coupled with API 5500 Q-Trap triple quadrupole mass spectrometer. A BEH C18 column (50×2.1 mm I.D., 1.7 μm, Waters, Milford, MA, USA) was used for liquid chromatography. For mobile phase, mobile phase A (MPA) was 0.1% formic acid in water and mobile phase B (MPB) was 100% acetonitrile; flow rate was 0.45 mL/min with a column temperature of 45° C. An amount of 10 μL sample was injected for each analysis and it was eluted with the following mobile phase profile: 0-0.5 min, 5-10% MPB, 0.5-1.5 min, 10-40% MPB, 1.5-4.0 min, 40-90% MPB, 4.0-4.4 min, 90% MPB, 4.4-4.6 min, 90-5% MPB, 4.6-5.0 min, 5% MPB. Gradient mobile phase for mycophenolic acid and metabolites: 0-1.0 min, 5-20% MPB, 1.0-1.5 min, 20% MPB, 1.5-4.0 min, 20-40% MPB, 4.0-5.0 min, 40-90% MPB, 5.0-5.5 min, 90-5% MPB, 5.5-6.0 min, 5% MPB.
To validate our results from the high-throughput fluorescent assay, a liquid chromatography-coupled tandem mass spectrometric (LC-MS/MS) method was used to monitor the reaction of UGT71G1 with 3-hydroxyflavone, bisphenol A, and SN-38.

[2] = system: UGT71G1; assay: High-throughput fluorescent assay for screening candidates of UGT glycosylation (UDP release, MicroMolar UDP assay kit); format: biochemical, Medicago truncatula; details: 6 μg UGT71G1, UDP-glucose 50 μM, substrate candidate 0.8 to 160 μM, 37° C. 45 minutes, ex 485 nm / em 535 nm
Method: High-throughput fluorescent assay for screening candidates of UGT glycosylation. Characterization of UDP formation involved the MicroMolar UDP assay kit (ProFoldin). For each reaction, reagents used from this kit include 3 μL of 10× buffer, 0.3 μL of 100×MUD reagent 1, and 0.3 μL of 100×MUD reagent 2. […] Each sample was then mixed with 30 μL of 1× fluorescence dye from the MICROMOLAR UDP assay kit and fluorescence was measured immediately with a BIOTEK SYNERGY H1 M florescence microplate reader at excitation 485 nm and emission 535 nm.
For a high-through method to robustly detect UGT activities with different glycosyl acceptor, it is necessary to target a change that is independent from the acceptor molecule. UDP-glycosyltransferases take UDP-glucose as a co-substrate; while the glucosyl moiety is transferred to the acceptor molecule, UDP is released as a by-product (FIG. 1A). Thus, UGT activities can be detected by the rise in UDP level in the reaction mixture. In our method to monitor an increase in UDP concentration, the UGT71G1 enzymatic reaction was coupled to the UDP assay kit, in which the release of UDP leads to an increase in fluorescence intensity.

[3] = system: UGT71G1; details: previous studies; cited from earlier work
[4] = patients that administer irinotecan; SN-38 excreted into the intestines via bile; cited from earlier work

Row | SMILES | validation as UGT71G1 substrate (glycosylated product detected) [1] | glycosylation of hydroxyl groups by UGT71G1 [3] | further results
1 | O=c1c(O)c(-c2ccccc2)oc2ccccc12 [Sample 26, 3-Hydroxyflavone] | validated | – | fold increase in fluorescent signal / fluorescence intensity with UGT71G1, comparing to the condition without UGT71G1 [2]: 30 fold
2 | CCc1c2c(nc3ccc(O)cc13)-c1cc3c(c(=O)n1C2)COC(=O)[C@]3(O)CC [Sample 58, 7-Ethyl-10-hydroxycamptothecin] | validated | – | –
3 | O=c1c(-c2ccc(O)cc2)coc2cc(O)cc(O)c12 [Sample 88, Genistein] | – | glycosylates multiple hydroxyl groups | –
4 | COc1ccc(-c2coc3cc(O)cc(O)c3c2=O)cc1 [Sample 130, Biochanin A] | – | glycosylates multiple hydroxyl groups | –
5 | CC(C)(c1ccc(O)cc1)c1ccc(O)cc1 [Sample 135, Bisphenol A] | validated | – | products formed in the reaction catalyzed by UGT71G1 ([1]; BPA 10 μM, 24 hours, major monoglycosylated, minor diglycosylated): two products
6 | CCc1c2c(nc3ccc(OC(=O)N4CCC(N5CCCCC5)CC4)cc13)-c1cc3c(c(=O)n1C2)COC(=O)[C@]3(O)CC [irinotecan] | – | – | patients experiencing diarrhea [4]: 25%
